Measured values taken from US10124004B2, “Pyrido[3,4-d]pyrimidine derivative and pharmaceutically acceptable salt thereof” (Teijin Pharma Limited, priority 2015, dated 2018).
Where two headings read alike, the source gives them in different places.

Legend:
CDK2/cyclin A2 = target: T1, CDK2/cyclin A2 (Homo sapiens, UniProt P24941); assay: Human CDK2/cyclin A2 inhibitory activity (QS S Assist CDK2/Cyclin A2_FP Kit, IMAP fluorescence polarization); format: biochemical
T1 construct: purchased Carna Biosciences, Inc. QS S Assist CDK2/Cyclin A2_FP Kit
Protocol: Human CDK2/Cyclin A^2 Inhibitory Activity
Each compound was analyzed for CDK2/cyclin A2 inhibitory activity with an assay kit (QS S Assist CDK2/Cyclin A2_FP Kit, available from Carna Biosciences, Inc.). This assay kit determines kinase activity on the basis of the IMAP technology by Molecular Devices. Specifically, the kinase activity is determined through quantification of a variation in fluorescent polarization caused by binding of a kinase-phosphorylated fluorescent substance to an IMAP-binding reagent.
An assay buffer was prepared by 10-fold dilution of the 10× assay buffer attached to the kit with distilled water, and each solution was prepared with the assay buffer. The assay buffer contained 20 mM HEPES (pH 7.4), 0.01% Tween 20, and 2 mM dithiothreitol. A test compound solution was prepared by dilution of the test compound with dimethyl sulfoxide (DMSO) to a concentration 100 times higher than the final concentration and then 25-fold dilution with the assay buffer to a concentration four times higher than the final concentration. An ATP/substrate/Metal solution was prepared by five-fold dilution of the 5×ATP/substrate/Metal solution attached to the kit with the assay buffer. An enzyme solution was prepared by dilution of the CDK2/cyclin A2 attached to the kit with the assay buffer to a concentration twice higher than the final concentration (final concentration of CDK2/cyclin A2: 2.5 ng/well). A detection reagent was prepared by five-fold dilution of 5×IMAP-binding buffer A with distilled water and 400-fold dilution of the IMAP-binding reagent with the diluted buffer.
The test compound solution (5 μL/well) and the ATP/substrate/Metal solution (5 μL/well) were added to a 384-well plate, and the enzyme solution or the assay buffer (10 μL/well) was added to the plate (total amount of the reaction mixture: 20 μL/well) for initiation of enzymatic reaction. […] The reaction was performed at room temperature for 60 minutes, and the detection reagent (60 μL/well) was then added to the plate, followed by further reaction for 30 minutes at room temperature under light shielding conditions. Subsequently, fluorescent polarization was determined with a microplate reader at an excitation wavelength of 485 nm and an emission wavelength of 535 nm.
The percent inhibition of enzyme activity was calculated for each test compound (note: enzyme activity=100% in the case of addition of the enzyme solution and addition of DMSO instead of the test compound solution, whereas enzyme activity=0% in the case of addition of the assay buffer instead of the enzyme solution and addition of DMSO instead of the test compound solution). The percent inhibition of enzyme activity was fitted to a dose-response curve, to determine a 50% inhibitory concentration against CDK2/cyclin A2.
In each table, “+++” corresponds to IC50<10 nM, “++” 10 nM≤IC50<100 nM, and “+” 100 nM≤IC50.

CDK4/cyclin D3 = target: T2, CDK4/cyclin D3 (Homo sapiens, UniProt P11802); assay: Human CDK4/cyclin D3 inhibitory activity (QS S Assist CDK4/Cyclin D3_FP Kit, IMAP fluorescence polarization); format: biochemical
T2 construct: purchased Carna Biosciences, Inc. QS S Assist CDK4/Cyclin D3_FP Kit
Method in brief: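 Percent inhibition, relative to DMSO with and without enzyme, was curve-fitted to give IC50 from polarization (ex 485, em 535 nm). The 45-min room-temperature reaction used 12.5-25 ng/well enzyme, kit ATP/substrate/metal mix, and HEPES pH 7.4 buffer with Tween20 and DTT, followed by 30-min IMAP binding in the dark.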

[1] = 50% inhibitory concentration against CDK2/cyclin A2, given as class symbol
[2] = 50% inhibitory concentration against CDK4/cyclin D3, given as class symbol
[3] = Human CDK2/cyclin A2 inhibitory activity, read-out: CDK2 Activity symbol
[4] = Human CDK4/cyclin D3 inhibitory activity, read-out: CDK4 Activity symbol

T2 sequence (P11802 whole entry): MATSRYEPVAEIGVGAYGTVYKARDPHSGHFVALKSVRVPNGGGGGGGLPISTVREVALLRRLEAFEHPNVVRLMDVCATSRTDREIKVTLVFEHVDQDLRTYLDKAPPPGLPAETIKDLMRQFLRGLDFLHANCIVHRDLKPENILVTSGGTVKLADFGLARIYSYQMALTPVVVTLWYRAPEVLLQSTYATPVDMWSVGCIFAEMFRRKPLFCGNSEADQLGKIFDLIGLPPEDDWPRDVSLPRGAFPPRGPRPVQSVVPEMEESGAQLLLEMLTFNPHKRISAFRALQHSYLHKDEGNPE
T2 sequence (P30281 whole entry partner): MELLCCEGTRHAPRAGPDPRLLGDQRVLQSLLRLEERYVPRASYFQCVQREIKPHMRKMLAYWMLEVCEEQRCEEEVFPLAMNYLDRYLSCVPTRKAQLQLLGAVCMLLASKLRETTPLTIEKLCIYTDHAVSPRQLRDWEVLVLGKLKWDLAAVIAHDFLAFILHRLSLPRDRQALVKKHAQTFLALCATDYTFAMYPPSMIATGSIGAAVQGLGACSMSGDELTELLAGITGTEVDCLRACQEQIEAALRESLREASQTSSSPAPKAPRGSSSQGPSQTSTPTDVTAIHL

| Structure (SMILES) | IC50 (CDK2/cyclin A2; [1]) [nM] | IC50 (CDK4/cyclin D3; [2]) [nM] | IC50 (CDK2/cyclin A2; [3]) [nM] | IC50 (CDK4/cyclin D3; [4]) [nM] |
| --- | --- | --- | --- | --- |
| Cc1nc(Nc2ncc3cc(C4CCOC4)nc(NC(C)C)c3n2)ccc1N1CCNCC1=O (single isomer, unassigned) [Compound 875] | ≥ 100 | < 10 | – | – |
| Cc1nc(Nc2ncc3cc(C4CCOC4)nc(NC(C)C)c3n2)ccc1N1CCNCC1=O (single isomer, unassigned) [Compound 876] | ≥ 100 | < 10 | – | – |
| c1cc(N2CCNCC2)nnc1Nc1ncc2cc(C3CCOC3)nc(N[C@H]3CCCOC3)c2n1 (single isomer, unassigned) [Compound 939] | ≥ 100 | < 10 | – | – |
| c1cc(Nc2ncc3cc(C4CCOC4)nc(N[C@H]4CCCOC4)c3n2)ncc1CN1CCNCC1 (single isomer, unassigned) [Compound 940] | ≥ 100 | < 10 | – | – |
| c1cc2c(nc1Nc1ncc3cc(C4CCOC4)nc(N[C@H]4CCCOC4)c3n1)CCNC2 (single isomer, unassigned) [Compound 942] | ≥ 100 | < 10 | – | – |
| c1cc2c(nc1Nc1ncc3cc(C4CCOC4)nc(NC4CCCOC4)c3n1)CCNC2 (single isomer, unassigned) [Compound 943] | ≥ 100 | 10 to 100 | – | – |
| CC(C)Nc1nc(C(C)O)cc2cnc(Nc3ccc(N4CCNC(C(F)(F)F)C4)nn3)nc12 (single isomer, unassigned) [Compound 989] | ≥ 100 | < 10 | – | – |
| CC(C)Nc1nc(C(C)O)cc2cnc(Nc3ccc(N4CCNC(C(F)(F)F)C4)nn3)nc12 (single isomer, unassigned) [Compound 990] | ≥ 100 | < 10 | – | – |
| CCCNc1nc(C2CCCO2)cc2cnc(Nc3ccc(N4CCNCC4)cn3)nc12 (single isomer, unassigned) [Compound 1025] | ≥ 100 | ≥ 100 | – | – |
| CCCNc1nc(C2CCCO2)cc2cnc(Nc3ccc(N4CCNCC4)cn3)nc12 (single isomer, unassigned) [Compound 1026] | ≥ 100 | 10 to 100 | – | – |
| CCNc1nc([C@@H](C)O)cc2cnc(Nc3ccc(CN4CCN(C(C)CO)CC4)cn3)nc12 (single isomer, unassigned) [Compound 1088] | ≥ 100 | < 10 | – | – |
| CCNc1nc([C@@H](C)O)cc2cnc(Nc3ccc(CN4CCN(C(C)CO)CC4)cn3)nc12 (single isomer, unassigned) [Compound 1089] | ≥ 100 | < 10 | – | – |
| CCCNc1nc([C@@H](C)O)cc2cnc(Nc3ccc(CN4CCN(C(C)CO)CC4)cn3)nc12 (single isomer, unassigned) [Compound 1206] | ≥ 100 | < 10 | – | – |
| CCCNc1nc([C@@H](C)O)cc2cnc(Nc3ccc(CN4CCN(C(C)CO)CC4)cn3)nc12 (single isomer, unassigned) [Compound 1207] | ≥ 100 | < 10 | – | – |
| FC(F)c1cc2cnc(Nc3ccc(N4CCNCC4)cn3)nc2c(NC2CCCC2)n1 [Compound 1] | – | – | 10 to 100 | < 10 |
| FC(F)c1cc2cnc(Nc3ccc(N4CCNCC4)cn3)nc2c(N[C@H]2CCCNC2)n1 [Compound 2] | – | – | 10 to 100 | < 10 |
| FC(F)c1cc2cnc(Nc3ccc(N4CCNCC4)cn3)nc2c(NC2CCOCC2)n1 [Compound 4] | – | – | 10 to 100 | < 10 |
| CN(c1nc(C(F)F)cc2cnc(Nc3ccc(N4CCNCC4)cn3)nc12)C1CCCC1 [Compound 5] | – | – | ≥ 100 | < 10 |
| OCc1cc2cnc(Nc3ccc(N4CCNCC4)cn3)nc2c(NC2CCCC2)n1 [Compound 6] | – | – | 10 to 100 | < 10 |
| CC(C)Oc1nc(C(F)F)cc2cnc(Nc3ccc(N4CCNCC4)cn3)nc12 [Compound 7] | – | – | ≥ 100 | < 10 |
| CC(O)c1cc2cnc(Nc3ccc(N4CCNCC4)cn3)nc2c(NC2CCCC2)n1 (centres unmarked) [Compound 8] | – | – | ≥ 100 | < 10 |
| CC(C)Nc1nc(C(C)O)cc2cnc(Nc3ccc(N4CCNCC4)cn3)nc12 (centres unmarked) [Compound 9] | – | – | ≥ 100 | < 10 |
| CC(O)c1cc2cnc(Nc3ccc(N4CCNCC4)cn3)nc2c(N(C)C2CCCC2)n1 (centres unmarked) [Compound 10] | – | – | ≥ 100 | < 10 |
| CC(O)c1cc2cnc(Nc3ccc(N4CCNCC4)cn3)nc2c(N(C)C2CCOCC2)n1 (centres unmarked) [Compound 11] | – | – | ≥ 100 | 10 to 100 |
| CC(O)c1cc2cnc(Nc3ccc(N4CCNCC4)cn3)nc2c(NC2CCOCC2)n1 (centres unmarked) [Compound 12] | – | – | ≥ 100 | < 10 |

| Structure (SMILES) | IC50 (CDK2/cyclin A2; [1]) [nM] | IC50 (CDK4/cyclin D3; [2]) [nM] | IC50 (CDK2/cyclin A2; [3]) [nM] | IC50 (CDK4/cyclin D3; [4]) [nM] |
| --- | --- | --- | --- | --- |
| CC(C)(C)Nc1nc(C(F)F)cc2cnc(Nc3ccc(N4CCNCC4)cn3)nc12 [Compound 13] | – | – | 10 to 100 | < 10 |
| CC(C)N(C)c1nc(C(F)F)cc2cnc(Nc3ccc(N4CCNCC4)cn3)nc12 [Compound 14] | – | – | ≥ 100 | < 10 |
| COCCNc1nc(C(F)F)cc2cnc(Nc3ccc(N4CCNCC4)cn3)nc12 [Compound 15] | – | – | ≥ 100 | < 10 |
| CC(C)Nc1nc([C@H](C)O)cc2cnc(Nc3ccc(N4CCNCC4)cn3)nc12 [Compound 17] | – | – | ≥ 100 | < 10 |
| FC(F)c1cc2cnc(Nc3ccc(N4CCNCC4)cn3)nc2c(NC2CC2)n1 [Compound 18] | – | – | ≥ 100 | < 10 |
| CNc1nc(C(F)F)cc2cnc(Nc3ccc(N4CCNCC4)cn3)nc12 [Compound 19] | – | – | ≥ 100 | < 10 |
| CCNc1nc(C(F)F)cc2cnc(Nc3ccc(N4CCNCC4)cn3)nc12 [Compound 20] | – | – | ≥ 100 | < 10 |
| CC(O)c1cc2cnc(Nc3ccc(N4CCNCC4)cn3)nc2c(NC2CC2)n1 (centres unmarked) [Compound 21] | – | – | ≥ 100 | < 10 |
| CNc1nc(C(C)O)cc2cnc(Nc3ccc(N4CCNCC4)cn3)nc12 (centres unmarked) [Compound 22] | – | – | ≥ 100 | 10 to 100 |
| CCNc1nc(C(C)O)cc2cnc(Nc3ccc(N4CCNCC4)cn3)nc12 (centres unmarked) [Compound 23] | – | – | ≥ 100 | < 10 |
| CC(O)c1cc2cnc(Nc3ccc(N4CCNCC4)cn3)nc2c(NC(C)(C)C)n1 (centres unmarked) [Compound 24] | – | – | ≥ 100 | < 10 |
| CC(O)c1cc2cnc(Nc3ccc(N4CCNCC4)cn3)nc2c(Nc2ccccc2)n1 (centres unmarked) [Compound 26] | – | – | ≥ 100 | < 10 |
| CC(O)c1cc2cnc(Nc3ccc(N4CCNCC4)cn3)nc2c(Nc2ccn[nH]2)n1 (centres unmarked) [Compound 27] | – | – | ≥ 100 | 10 to 100 |
| COCC(C)Nc1nc(C(C)O)cc2cnc(Nc3ccc(N4CCNCC4)cn3)nc12 (centres unmarked) [Compound 28] | – | – | ≥ 100 | < 10 |
| COCC(C)(C)Nc1nc(C(C)O)cc2cnc(Nc3ccc(N4CCNCC4)cn3)nc12 (centres unmarked) [Compound 29] | – | – | ≥ 100 | < 10 |
| COCC(C)Nc1nc(C(F)F)cc2cnc(Nc3ccc(N4CCNCC4)cn3)nc12 (centres unmarked) [Compound 30] | – | – | 10 to 100 | < 10 |
| COCC(C)(C)Nc1nc(C(F)F)cc2cnc(Nc3ccc(N4CCNCC4)cn3)nc12 [Compound 31] | – | – | ≥ 100 | < 10 |
| CC(O)c1cc2cnc(Nc3ccc(N4CCNCC4)cn3)nc2c(Nc2cn[nH]c2)n1 (centres unmarked) [Compound 32] | – | – | ≥ 100 | < 10 |
| FC(F)c1cc2cnc(Nc3ccc(N4CCNCC4)cn3)nc2c(NC2COC2)n1 [Compound 33] | – | – | ≥ 100 | ≥ 100 |
| CC(C)Nc1nc(C(=O)N(C)C)cc2cnc(Nc3ccc(N4CCNCC4)cn3)nc12 [Compound 34] | – | – | ≥ 100 | 10 to 100 |
| CC(=O)c1cc2cnc(Nc3ccc(N4CCNCC4)cn3)nc2c(NC(C)C)n1 [Compound 35] | – | – | ≥ 100 | < 10 |
| CC(O)c1cc2cnc(Nc3ccc(N4CCNCC4)cn3)nc2c(NCC(F)F)n1 (centres unmarked) [Compound 36] | – | – | ≥ 100 | ≥ 100 |
| COC(C)c1cc2cnc(Nc3ccc(N4CCNCC4)cn3)nc2c(NC(C)C)n1 (centres unmarked) [Compound 37] | – | – | ≥ 100 | < 10 |
| CO[C@@H](C)c1cc2cnc(Nc3ccc(N4CCNCC4)cn3)nc2c(NC(C)C)n1 [Compound 38] | – | – | ≥ 100 | < 10 |
